From patent US20050250945A1, “Triazine compounds as inhibitors of bacterial type III protein secretion systems” (priority 2004, published 2005)

Experiments:
Format in all cases: cell-based
[1] = test system: SPI1 type III protein secretion system (SopE‘-’Bla secretion); assay: Primary assay: Type III protein secretion of the chimeric SopE‘-’Bla polypeptide (nitrocefin hydrolysis); conditions: Salmonella enterica, read-out: SopE IC50(uM)
Text: Primary assay: Type III protein secretion of the chimeric SopE‘-’Bla polypeptide by Salmonella enterica. This procedure is a cell-based assay that measures the type III-dependent secretion by Salmonella enterica of a plasmid-encoded chimeric polypeptide whose synthesis can be regulated, and which is endowed with an enzymatic activity that can be monitored colorimetrically by hydrolysis of a substrate that is unable to penetrate into the bacterial cytoplasm within the time constraints of the reaction. Thus, the colorimetric reaction is not influenced by SopE‘-’Bla polypeptide in the bacterial cytoplasm. Instead, it effectively measures the amount of polypeptide that has been secreted from the S. enterica cytoplasm to the extracellular medium via type III system protein secretion.
The SopE‘-’Bla recombinant polypeptide consists of two functionally distinct domains spliced together. The N-terminus domain is encoded by a polynucleotide region specifying the signal for type III secretion of the SopE polypeptide of S. enterica, an effector of the SPI1 type III protein secretion system. The C-terminus domain of SopE‘-’Bla consists of a 263 amino acid peptide sequence that corresponds to the TEM-1 β-lactamase expressed by plasmid pBR322 but without its N-terminal signal sequence. The TEM-1 β-lactamase part of the SopE‘-’Bla chimeric polypeptide is used as a reporter enzyme. It is capable of hydrolyzing nitrocefin resulting in a product whose accumulation can be monitored by colorimetric detection. The secretion of the SopE‘—’Bla chimeric polypeptide from the cytoplasm to the extracellular medium is dependent on type III protein secretion.
For this procedure, cells grown under conditions known to favor a functional SPI1 secretion system are induced for expression of the SopE‘-’Bla protein and grown either in the presence or in the absence of putative inhibitors for determined time. Nitrocefin is then added to the various cultures and its hydrolysis are used for quantitation. An inhibitor of Type III protein secretion is generally a compound that reduces the signal of the enzymatic reaction by decreasing the amount of SopE‘-’Bla secreted into the extracellular medium.

[2] = test system: SPI1 type III protein secretion system (SipB secretion); assay: Secondary assay: Type III-dependent protein secretion of the SipB polypeptide (immunoblot); conditions: Salmonella enterica, read-out: SipB IC50(uM)
Procedure: Secondary assay: Type III-dependent protein secretion of the SipB polypeptide by S. enterica. The SipB protein of S. enterica is another effector of the SPI1 type III protein secretion system from S. enterica. In this cell-based procedure, the Type III-dependent secretion of SipB from the bacterial cytoplasm to the extracellular medium was measured through its reactivity with a cognate mouse monoclonal.
Salmonella enterica cells growing either in the presence or in the absence of inhibitors are induced for the production of SipB. Following an established period of growth the cells are sedimented and the amount of SipB present in the supernatant is quantified with a scanning imager following application of immunoblot techniques. Detection may employ an anti-SipB mouse monoclonal antibody (e.g., obtained from Jorge Galan, SUNY at Stony Brook, N.Y.) followed by treatment with commercially available sheep anti-mouse polyclonal antibody conjugated with horseradish peroxidase. Thereafter the membrane is treated with a peroxidase chemiluminescent substrate and exposed to film for an appropriate exposure time. Inhibition may be measured relative to untreated controls.

[3] = test system: type III protein secretion system of P. aeruginosa PA103 (ExoU secretion); assay: Tertiary assay: Type III-dependent secretion of ExoU by P. aeruginosa PA103 (SDS-PAGE band quantitation); conditions: Pseudomonas aeruginosa; P. aeruginosa PA103, ExoU secreted into extracellular medium
Text: Tertiary assay: Inhibition of Type III protein secretion of effectors from a Pseudomonas aeruginosa system. Type III protein secretion is used by P. aeruginosa to secrete several essential virulence determinants. One effector of the type III protein secretion system of P. aeruginosa PA103 is the virulence determinants ExoU.
The amount of Type III-dependent secretion of ExoU by P. aeruginosa PA103 can be determined in a cell-based assay by quantification of the 73.9 kDa ExoU protein secreted into the extracellular medium. Such quantitation can be achieved by growing strain PA103 in a deferrated medium in the presence of nitrilotriacetic acid (an inducer of Type III protein secretion in P. aeruginosa) and either in the presence or absence of putative inhibitors. After a prolonged growth period, the cells are sedimented and the supernatants concentrated by ammonium sulfate precipitation. The proteins in the resuspended pellets are separated by electrophoresis on SDS-polyacrylamide gels. After staining gels with Colloidal Blue™, the 73.9 kDa ExoU band is quantitated by scanning through an imager. The effects of inhibitors on the intensity of the ExoU band may be measured relative to that of untreated controls.

Row | Compound | IC50 [1] | IC50 [2] | IC50 [3]
1 | O=C(O)[C@H](CSCc1ccccc1)Nc1nc(Nc2ccc(C(F)(F)F)cc2)nc(-c2cccc(F)c2)n1 [Compound 23, (R)-3-Benzylsulfanyl-2-[4-(3-fluorophenyl)-6-(4-trifluoromethylphenylamino)-[1,3,5]triazin-2-yl-amino]propionic acid] | 4.2 µM | – | –
2 | O=C(O)[C@H](CSCc1ccccc1)Nc1nc(Nc2ccc(C(F)(F)F)cc2)nc(-c2ccccc2)n1 [Compound 24, (R)-3-Benzylsulfanyl-2-[4-phenyl-6-(4-trifluoromethylphenylamino)[1,3,5]triazin-2-yl-amino]propionic acid] | 4.4 µM | – | –
3 | O=C(O)[C@H](CSCc1ccccc1)Nc1nc(Nc2ccc(C(F)(F)F)cc2)nc(-c2ccc(C(F)(F)F)cc2)n1 [Compound 16, (R)-3-Benzylsulfanyl-2-[4-(4-trifluoromethylphenyl)-6-(4-trifluoromethyl-phenylamino)[1,3,5]triazin-2-yl-amino]propionic acid] | 2 µM | – | –
4 | O=C(O)[C@H](CSCc1ccccc1)Nc1nc(Nc2ccc(C(F)(F)F)cc2)nc(-c2ccc(Cl)cc2)n1 [Compound 15, (R)-3-Benzylsulfanyl-2-[4-(4-chlorophenyl)-6-(4-trifluoromethylphenylamino)-[1,3,5]triazin-2-yl-amino]propionic acid] | 1.9 µM | – | –
5 | O=C(O)[C@H](CSCc1ccccc1)Nc1nc(Nc2ccc(C(F)(F)F)cc2)nc(-c2ccc(F)cc2)n1 [Compound 25, (R)-3-Benzylsulfanyl-2-[4-(4-fluorophenyl)-6-(4-trifluoromethylphenylamino)-[1,3,5]triazin-2-yl-amino]propionic acid] | 4.7 µM | – | –
6 | O=C(O)[C@H](CSCc1ccccc1)Nc1nc(Nc2ccc(C(F)(F)F)cc2)nc(-c2ccc(O)cc2)n1 [Compound 31, (R)-3-Benzylsulfanyl-2-[4-(4-hydroxyphenyl)-6-(4-trifluoromethylphenylamino)-[1,3,5]triazin-2-yl-amino]propionic acid] | 9.1 µM | – | –
7 | O=C(O)[C@H](CS(=O)(=O)Cc1ccccc1)Nc1nc(-c2ccc(F)cc2)nc(N2CCc3ccccc3C2)n1 [Compound 11, (R)-2-[4-(3,4-Dihydro-1H-isoquinolin-2-yl)-6-(4-fluorophenyl)[1,3,5]triazin-2yl-amino]-3-phenyl-methanesulfonyl propionic acid] | 86 µM | > 100 µM | –
8 | O=C(O)[C@H](CSCc1ccccc1)Nc1nc(Nc2ccc(C(F)(F)F)cc2)nc(-c2ccc(Br)cc2)n1 [Compound 14, (R)-3-Benzylsulfanyl-2-[4-(4-bromophenyl)-6-(4-trifluoromethylphenylamino)-[1,3,5]triazin-2-yl-amino]propionic acid] | 1.7 µM | – | –
9 | CC(C)Oc1ccc(-c2nc(Nc3ccc(C(F)(F)F)cc3)nc(N[C@@H](CSCc3ccccc3)C(=O)O)n2)cc1 [Compound 22, (R)-3-Benzylsulfanyl-2-[4-(4-isopropoxyphenyl)-6-(4-trifluoromethyl-phenylamino)[1,3,5]triazin-2-yl-amino]propionic acid] | 4.1 µM | – | –
10 | O=C(O)[C@H](CSCc1ccccc1)Nc1nc(Nc2ccc(C(F)(F)F)cc2)nc(-c2ccccc2F)n1 [Compound 28, (R)-3-Benzylsulfanyl-2-[4-(2-fluorophenyl)-6-(4-trifluoromethylphenylamino)-[1,3,5]triazin-2-yl-amino]propionic acid] | 6.7 µM | – | > 100 µM
11 | O=C(O)[C@H](CSCc1ccccc1)Nc1nc(Nc2ccc(C(F)(F)F)cc2)nc(-c2ccc(OC(F)(F)F)cc2)n1 [Compound 19, (R)-3-Benzylsulfanyl-2-[4-(4-trifluoromethoxyphenyl)-6-(4-trifluoromethyl-phenylamino)[1,3,5]triazin-2-yl-amino]propionic acid] | 3.2 µM | – | –
12 | O=C(O)[C@H](CSCc1ccccc1)Nc1nc(Nc2ccc(C(F)(F)F)cc2)nc(-c2cccc(C(F)(F)F)c2)n1 [Compound 21, (R)-3-Benzylsulfanyl-2-[4-(3-trifluoromethylphenyl)-6-(4-trifluoromethyl-phenylamino)[1,3,5]triazin-2-yl-amino]propionic acid] | 4.1 µM | – | –
13 | CN(C)c1ccc(-c2nc(Nc3ccc(C(F)(F)F)cc3)nc(N[C@@H](CSCc3ccccc3)C(=O)O)n2)cc1 [Compound 30, (R)-3-Benzylsulfanyl-2-[4-(4-dimethylaminophenyl)-6-(4-trifluoromethyl-phenylamino)[1,3,5)triazin-2-yl-amino]propionic acid] | 8.5 µM | – | –
14 | O=C(O)[C@H](CSCc1ccccc1)Nc1nc(Nc2ccc(C(F)(F)F)cc2)nc(-c2cc(F)cc(F)c2)n1 [Compound 29, (R)-3-Benzylsulfanyl-2-[4-(3,5-difluorophenyl)-6-(4-trifluoromethylphenylamino)[1,3,5]triazin-2-yl-amino]propionic acid] | 7.4 µM | – | –
15 | O=C(O)[C@H](CSCc1ccccc1)Nc1nc(Nc2ccc(C(F)(F)F)cc2)nc(-c2ccc3ccccc3c2)n1 [Compound 20, (R)-3-Benzylsulfanyl-2-[4-naphthalen-2-yl-6-(4-trifluoromethylphenylamino)-[1,3,5]triazin-2-yl-amino]propionic acid] | 3.3 µM | – | > 100 µM
16 | O=C(O)[C@H](CSCc1ccccc1)Nc1nc(Nc2ccc(C(F)(F)F)cc2)nc(-c2ccccc2Oc2ccccc2)n1 [Compound 17, (R)-3-Benzylsulfanyl-2-[4-(2-phenoxyphenyl)-6-(4-trifluoromethylphenylamino)[1,3,5]triazin-2-yl-amino]propionic acid] | 2.5 µM | – | –
17 | O=C(O)[C@H](CSCc1ccccc1)Nc1nc(Nc2ccc(C(F)(F)F)cc2)nc(-c2ccc(Cl)c(Cl)c2)n1 [Compound 13, (R)-3-Benzylsulfanyl-2-[4-(3,4-dichlorophenyl)-6-(4-trifluoromethylphenylamino)-[1,3,5]triazin-2-yl-amino]propionic acid] | 1.25 µM | – | –
18 | O=C(O)[C@H](CSCc1ccccc1)Nc1nc(Nc2ccc(C(F)(F)F)cc2)nc(-c2ccc(Oc3ccccc3)cc2)n1 [Compound 12, (R)-3-Benzylsulfanyl-2-[4-(4-phenoxyphenyl)-6-(4-trifluoromethylphenylamino)[1,3,5]triazin-2-yl-amino]propionic acid] | 1.1 µM | – | > 100 µM
19 | O=C(O)[C@H](CSCc1ccccc1)Nc1nc(Nc2ccc(C(F)(F)F)cc2)nc(-c2cccc3ccccc23)n1 [Compound 18, (R)-3-Benzylsulfanyl-2-[4-naphthalen-1-yl-6-(4-trifluoromethylphenylamino)-[1,3,5]triazin-2-yl-amino]propionic acid] | 2.5 µM | – | –
20 | O=C(O)C(Cc1ccc(Cl)cc1)Nc1nc(Nc2ccc(C(F)(F)F)cc2)nc(-c2ccc(F)cc2)n1 (stereo not drawn) [Compound 27, 3-(4-Chlorophenyl)-2-[4-(4-fluorophenyl)-6-(4-trifluoromethylphenylamino)-[1,3,5]triazin-2-yl-amino]propionic acid] | 6.1 µM | > 100 µM | –
21 | O=C(O)[C@H](C[S+]([O-])Cc1ccccc1)Nc1nc(-c2ccc(F)cc2)nc(N2CCc3ccccc3C2)n1 (stereo partly drawn) [Compound 9, (R)-2-[4-(3,4-Dihydro-1H-isoquinolin-2-yl)-6-(4-fluorophenyl)[1,3,5]triazin-2-yl-amino]-3-phenylmethanesulfinylpropionic acid] | 42.6 µM | > 100 µM | –
